≈ marks a conversion by molar mass, not a printed value. Where two headings read alike, the source gives them in different places.
How the values were obtained:
[1] = Physical-chemical characteristics: solubility; type: physicochemical; settings: solvents: methanol, DMSO, pyridine
Text: The physical-chemical as well as the spectroscopic characteristics of the compound Amycomycin according to the invention are as follows: […]

[2] = tested on: gram-positive bacteria such as Staphylo- and Enterococci; test: Antibacterial activity; type: cell-based; settings: particularly against gram-positive bacteria such as Staphylo- and Enterococci
Text: (§1) Lately, these strains have proven increasingly to be problem strains, i.e., those microorganisms that have become resistant to existing antibiotics. The superiority of the present compound in relation to other antibiotics is shown, for example, in the inhibition of vancomycin- and teicoplanin-resistant strains such as, for example, E. faecalis, E. faecium or E. gallinarium.

S.epidermidis 012GO20 = test: MIC micro-dilutions test; type: cell-based; settings: Staphylococcus epidermidis; S.epidermidis 012GO20, oxa S ery S tet R; Gram-positive; read-out: Minimum Inhibition Concentration
Text: as §1

S.aureus 011GR91 = test: MIC micro-dilutions test; type: cell-based; settings: Staphylococcus aureus
Text: as §1

E.faecalis O2D2HT10 = test: MIC micro-dilutions test; type: cell-based; settings: Enterococcus faecalis
Text: as §1

E.faecium O2D3AP9 = test: MIC micro-dilutions test; type: cell-based; settings: Enterococcus faecium
Text: as §1

S.pyogenes O2A1SJ1 = test: MIC micro-dilutions test; type: cell-based; settings: Streptococcus pyogenes
Text: as §1

S.aureus 011GO71 = test: MIC micro-dilutions test; type: cell-based; settings: Staphylococcus aureus
Text: as §1

S.epidermidis 012GO42 = test: MIC micro-dilutions test; type: cell-based; settings: Staphylococcus epidermidis; S.epidermidis 012GO42, oxa R; Gram-positive; read-out: Minimum Inhibition Concentration
Text: as §1

S.pyogenes O2A1FI6 = test: MIC micro-dilutions test; type: cell-based; settings: Streptococcus pyogenes
Text: as §1

S.aureus 011HT1 = test: MIC micro-dilutions test; type: cell-based; settings: Staphylococcus aureus
Text: as §1

E.faecalis O2D2DU18 = test: MIC micro-dilutions test; type: cell-based; settings: Enterococcus faecalis
Text: as §1

S.aureus 011HT3 = test: MIC micro-dilutions test; type: cell-based; settings: Staphylococcus aureus
Text: as §1

[3] = tested on: Staph.coag.negative 012HT5; test: MIC micro-dilutions test; type: cell-based; settings: read-out: Minimum Inhibition Concentration
Text: as §1

P.aeruginosa 1771 391HT2 = test: MIC micro-dilutions test; type: cell-based; settings: Pseudomonas aeruginosa, 1771391HT2, Gram-negative, read-out: Minimum Inhibition Concentration
Text: as §1

E.faecium O2D3HT12 = test: MIC micro-dilutions test; type: cell-based; settings: Enterococcus faecium
Text: as §1

E.faecium O2D3HM3 = test: MIC micro-dilutions test; type: cell-based; settings: Enterococcus faecium
Text: as §1

S.aureus 011GO64 = test: MIC micro-dilutions test; type: cell-based; settings: Staphylococcus aureus
Text: as §1

S.mitis O2mitGR16 = test: MIC micro-dilutions test; type: cell-based; settings: Streptococcus mitis
Text: as §1

E.faecalis O2D2HM9 = test: MIC micro-dilutions test; type: cell-based; settings: Enterococcus faecalis
Text: as §1

E.gallinarium O2D0HM8 = test: MIC micro-dilutions test; type: cell-based; settings: read-out: Minimum Inhibition Concentration
Text: as §1

S.aureus 011DU5 = test: MIC micro-dilutions test; type: cell-based; settings: Staphylococcus aureus
Text: as §1

S.aureus 011HT18 = test: MIC micro-dilutions test; type: cell-based; settings: Staphylococcus aureus
Text: as §1

S.pyogenes O2A1UC1 = test: MIC micro-dilutions test; type: cell-based; settings: Streptococcus pyogenes
Text: as §1

[4] = tested on: P.aeruginosa 1771m 391HT3; test: MIC micro-dilutions test; type: cell-based; settings: Pseudomonas aeruginosa, 1771M391HT3, read-out: Minimum Inhibition Concentration
Text: as §1

S.pneumoniae 030BI2 = test: MIC micro-dilutions test; type: cell-based; settings: Streptococcus pneumoniae
Text: as §1

E.faecalis O2D2UC5 = test: MIC micro-dilutions test; type: cell-based; settings: Enterococcus faecalis
Text: as §1

S.aureus 011CB20 = test: MIC micro-dilutions test; type: cell-based; settings: Staphylococcus aureus
Text: as §1

Strepto gr.G O2G0CB2 = test: MIC micro-dilutions test; type: cell-based; settings: read-out: Minimum Inhibition Concentration
Text: as §1

E.faecium O2D3IP2 = test: MIC micro-dilutions test; type: cell-based; settings: Enterococcus faecium; E.faecium O2D3IP2, tei R van R ery R tet R; Gram-positive; read-out: Minimum Inhibition Concentration
Text: as §1

S.milleri O2milGR12 = test: MIC micro-dilutions test; type: cell-based; settings: S.milleri O2milGR12, ery S van S; Gram-positive; read-out: Minimum Inhibition Concentration
Text: as §1

C/C(=C\CC(O)CC(O)CCC(C)C(O)C(C)C(O)CCCC(O)C(C)C(O)/C(C)=C/C(C)C(=O)/C(C)=C/C(O)C(O)CC(O)CC(O)C(C)CCC(O)CC(O)CCC(C)C(O)C(C)C(O)C(C)C)C(=O)C1=C(O)/C(=C/C(C)C)N(C)C1=O (stereo not drawn) [Amycomycin]
Solubility (Appearance) [1]: colorless solid, soluble in methanol, DMSO, | antibacterial activity [2]: extraordinary antibacterial activity | MIC (S.epidermidis 012GO20): 0.3 µg/mL (≈ 0.25 µM) | MIC (S.aureus 011GR91; S.aureus 011GR91, pri R oxa R ery R nov R, Gram-positive, read-out: Minimum Inhibition Concentration): 1.2 µg/mL (≈ 1 µM) | MIC (E.faecalis O2D2HT10; E.faecalis O2D2HT10, nov R van S tet R, Gram-positive, read-out: Minimum Inhibition Concentration): 1.2 µg/mL (≈ 1 µM) | MIC (E.faecium O2D3AP9; E.faecium O2D3AP9, nov S van R ery S tei R, Gram-positive, read-out: Minimum Inhibition Concentration): 0.6 µg/mL (≈ 0.501 µM) | MIC (S.pyogenes O2A1SJ1; S.pyogenes O2A1SJ1, van S ery Rc, Gram-positive, read-out: Minimum Inhibition Concentration): 0.3 µg/mL (≈ 0.25 µM) | MIC (S.aureus 011GO71; S.aureus 011GO71, ofl S oxa R ery S tet R, Gram-positive, read-out: Minimum Inhibition Concentration): 0.15 µg/mL (≈ 0.125 µM) | MIC (S.epidermidis 012GO42): 0.3 µg/mL (≈ 0.25 µM) | MIC (S.pyogenes O2A1FI6; S.pyogenes O2A1FI6, ery R, Gram-positive, read-out: Minimum Inhibition Concentration): 0.6 µg/mL (≈ 0.501 µM) | MIC (S.aureus 011HT1; S.aureus 011HT1, nov R, Gram-positive, read-out: Minimum Inhibition Concentration): ≤ 0.04 µg/mL | MIC (E.faecalis O2D2DU18; E.faecalis O2D2DU18, tet R nov R, Gram-positive, read-out: Minimum Inhibition Concentration): 1.2 µg/mL (≈ 1 µM) | MIC (S.aureus 011HT3; S.aureus 011HT3, oxa S ery S, Gram-positive, read-out: Minimum Inhibition Concentration): 0.08 µg/mL (≈ 0.0667 µM) | MIC ([3]; Staph.coag.negative 012HT5, ofl R oxa R tet R, Gram-positive): 0.15 µg/mL (≈ 0.125 µM) | MIC (P.aeruginosa 1771 391HT2): > 40 µg/mL | MIC (E.faecium O2D3HT12; E.faecium O2D3HT12, tei R van R ery R tet R, Gram-positive, read-out: Minimum Inhibition Concentration): 0.6 µg/mL (≈ 0.501 µM) | MIC (E.faecium O2D3HM3; E.faecium O2D3HM3, nov S van A ery R tei R, Gram-positive, read-out: Minimum Inhibition Concentration): 1.2 µg/mL (≈ 1 µM) | MIC (S.aureus 011GO64; S.aureus 011GO64, ofl R oxa R ery Rc tet R, Gram-positive, read-out: Minimum Inhibition Concentration): 0.3 µg/mL (≈ 0.25 µM) | MIC (S.mitis O2mitGR16; S.mitis O2mitGR16, ery Ri van S, Gram-positive, read-out: Minimum Inhibition Concentration): 1.2 µg/mL (≈ 1 µM) | MIC (E.faecalis O2D2HM9; E.faecalis O2D2HM9, nov R van B ery R tei S, Gram-positive, read-out: Minimum Inhibition Concentration): 2.5 µg/mL (≈ 2.09 µM) | MIC (E.gallinarium O2D0HM8; E.gallinarium O2D0HM8, van C tet R ery S, Gram-positive): 1.2 µg/mL (≈ 1 µM) | MIC (S.aureus 011DU5; S.aureus 011DU5, nov R tet R, Gram-positive, read-out: Minimum Inhibition Concentration): 0.08 µg/mL (≈ 0.0667 µM) | MIC (S.aureus 011HT18; ATCC13709, S.aureus 011HT18, ATCC 13709 Smith, Gram-positive, read-out: Minimum Inhibition Concentration): 0.08 µg/mL (≈ 0.0667 µM) | MIC (S.pyogenes O2A1UC1; S.pyogenes O2A1UC1, van S ery S, Gram-positive, read-out: Minimum Inhibition Concentration): 0.6 µg/mL (≈ 0.501 µM) | MIC [4]: > 40 µg/mL | MIC (S.pneumoniae 030BI2; S.pneumoniae 030BI2, ery R, Gram-positive, read-out: Minimum Inhibition Concentration): 0.15 µg/mL (≈ 0.125 µM) | MIC (E.faecalis O2D2UC5; ATCC29212, E.faecalis O2D2UC5, ATCC 29212 nov R, Gram-positive, read-out: Minimum Inhibition Concentration): 2.5 µg/mL (≈ 2.09 µM) | MIC (S.aureus 011CB20; S.aureus 011CB20, oxa R ery Rc tet R, Gram-positive, read-out: Minimum Inhibition Concentration): 0.08 µg/mL (≈ 0.0667 µM) | MIC (Strepto gr.G O2G0CB2; Strepto gr.G O2G0CB2, tet R rif R nov R, Gram-positive): 0.6 µg/mL (≈ 0.501 µM)

CN[C@H](CC(C)C)C(=O)N[C@H]1C(=O)N[C@@H](CC(N)=O)C(=O)N[C@H]2C(=O)N[C@H]3C(=O)N[C@H](C(=O)N[C@H](C(=O)O)c4cc(O)cc(O)c4-c4cc3ccc4O)[C@H](O)c3ccc(c(Cl)c3)Oc3cc2cc(c3O[C@@H]2O[C@H](CO)[C@@H](O)[C@H](O)[C@H]2O[C@H]2C[C@](C)(N)[C@H](O)[C@H](C)O2)Oc2ccc(cc2Cl)[C@H]1O [Vancomycin, reference compound]
MIC (S.aureus 011GR91; 011GR91, read-out: Minimum Inhibition Concentration): 1.2 µg/mL (≈ 0.828 µM) | MIC (E.faecalis O2D2HT10; O2D2HT10, read-out: Minimum Inhibition Concentration): 0.6 µg/mL (≈ 0.414 µM) | MIC (E.faecium O2D3AP9; O2D3AP9, read-out: Minimum Inhibition Concentration): > 40 µg/mL | MIC (S.pyogenes O2A1SJ1; O2A1SJ1, read-out: Minimum Inhibition Concentration): 0.15 µg/mL (≈ 0.104 µM) | MIC (S.aureus 011GO71; 011GO71, read-out: Minimum Inhibition Concentration): 0.6 µg/mL (≈ 0.414 µM) | MIC (S.pyogenes O2A1FI6; O2A1FI6, read-out: Minimum Inhibition Concentration): 0.08 µg/mL (≈ 0.0552 µM) | MIC (S.aureus 011HT1; 011HT1, read-out: Minimum Inhibition Concentration): 0.08 µg/mL (≈ 0.0552 µM) | MIC (E.faecalis O2D2DU18; O2D2DU18, read-out: Minimum Inhibition Concentration): 0.3 µg/mL (≈ 0.207 µM) | MIC (S.aureus 011HT3; 011HT3, read-out: Minimum Inhibition Concentration): 0.3 µg/mL (≈ 0.207 µM) | MIC (E.faecium O2D3IP2): > 40 µg/mL | MIC [3]: 0.6 µg/mL (≈ 0.414 µM) | MIC (E.faecium O2D3HT12; O2D3HT12, read-out: Minimum Inhibition Concentration): > 40 µg/mL | MIC (E.faecium O2D3HM3; O2D3HM3, read-out: Minimum Inhibition Concentration): > 40 µg/mL | MIC (S.aureus 011GO64; 011GO64, read-out: Minimum Inhibition Concentration): 1.2 µg/mL (≈ 0.828 µM) | MIC (S.mitis O2mitGR16; O2MITGR16, read-out: Minimum Inhibition Concentration): 0.3 µg/mL (≈ 0.207 µM) | MIC (E.faecalis O2D2HM9; O2D2HM9, read-out: Minimum Inhibition Concentration): > 40 µg/mL | MIC (E.gallinarium O2D0HM8): > 40 µg/mL | MIC (S.aureus 011DU5; 011DU5, read-out: Minimum Inhibition Concentration): 0.15 µg/mL (≈ 0.104 µM) | MIC (S.aureus 011HT18; ATCC13709, read-out: Minimum Inhibition Concentration): 0.3 µg/mL (≈ 0.207 µM) | MIC (S.pyogenes O2A1UC1; O2A1UC1, read-out: Minimum Inhibition Concentration): 0.15 µg/mL (≈ 0.104 µM) | MIC (S.pneumoniae 030BI2; 030BI2, read-out: Minimum Inhibition Concentration): 0.15 µg/mL (≈ 0.104 µM) | MIC (E.faecalis O2D2UC5; ATCC29212, read-out: Minimum Inhibition Concentration): 2.5 µg/mL (≈ 1.73 µM) | MIC (S.aureus 011CB20; 011CB20, read-out: Minimum Inhibition Concentration): 0.15 µg/mL (≈ 0.104 µM) | MIC (S.milleri O2milGR12): 0.3 µg/mL (≈ 0.207 µM) | MIC (Strepto gr.G O2G0CB2): 0.15 µg/mL (≈ 0.104 µM)

Source: patent US6642391B2, “Amycomycin, a process for its production and its use as a pharmaceutical” (priority 1999, dated 2003)
